Laboratory results from patent US20260015592A1, “NEDDYLATION-ACTIVATING ENZYME INHIBITORS AS VIRAL SENSITIZERS AND USES THEREOF” (priority 2022, published 2026).
Residues, ends and D or L forms follow the SMILES beside them. *: point of attachment. Cbz = O=C(OCc1ccccc1)*; CH2F = FC*

Key:
[1] = system: 786-0 cells
[2] = system: VSVΔ51; type: cell-based, vesicular stomatitis virus
[3] = system: IFN-β; type: cell-based, Human
[4] = system: 4T1 mammary carcinoma; conditions: mouse, in vivo
[5] = system: AAV2-Fluc; assay: AAV2-Fluc production in HEK293 cells, functional titre assay; type: cell-based, adeno-associated virus (AAV)
[6] = system: MG-1; type: cell-based, Maraba virus
[7] = system: VSVΔ51; type: cell-based, vesicular stomatitis virus; remark: listed apart in the source
[8] = system: STAT1; type: cell-based, Human
[9] = system: STAT1 and STAT2; type: cell-based, Human
[10] = system: 786-0 cells; type: cell-based, Human
[11] = system: 786-0 cells; assay: cells; conditions: Homo sapiens, 786-0, read-out: cell viability
[12] = system: VSVΔ51; type: cell-based, vesicular stomatitis virus; remark: listed apart in the source
[13] = system: VSVΔ51; type: cell-based, vesicular stomatitis virus; remark: listed apart in the source
[14] = system: VSVΔ51; type: cell-based, vesicular stomatitis virus; remark: listed apart in the source
[15] = system: 786-0 cells; type: cell-based, Human; remark: listed apart in the source
[16] = system: CT26WT colon carcinoma; conditions: mouse, in vivo
[17] = system: NF-κB; type: cell-based, Human
[18] = system: primary murine hepatocytes
[19] = system: VSV-wild type-FLuc; type: cell-based, vesicular stomatitis virus
[20] = system: VSVΔ51; type: cell-based, vesicular stomatitis virus; remark: listed apart in the source
[21] = system: various human and murine cell lines

## CCOc1cccc(F)c1C#Cc1cn([C@@H]2O[C@H](CNS(N)(=O)=O)[C@@H](O)[C@H]2O)c2ncnc(N)c12 [TAS4464]
[1]
  VSVΔ51 oncolysis (cell viability, Alamar blue): enhanced oncolysis
[2]
  VSVΔ51 infectivity (fluorescent signal, plaque assay): increased VSVΔ51 infectivity

## Nc1ccc(SCC(=O)Nc2ccc3nc(NC(=O)c4ccc(C(F)(F)F)cc4)sc3c2)cc1 [ZM223, N-(6-(2-((4-aminophenyl)thio)acetamido)benzo[d]thiazol-2-yl)-4-(trifluoromethyl) benzamide]
[3]
  IFN-β secretion: unable to do the same
[2]
  VSVΔ51 infectivity (fluorescent signal, plaque assay): some viral sensitizing activity

## NS(=O)(=O)OC[C@@H]1C[C@H](n2ccc3c(N[C@H]4CCc5ccccc54)ncnc32)C[C@@H]1O [pevonedistat, ((1S,2S,4S)-4-(4-(((S)-2,3-dihydro-1H-inden-1-yl)amino)-7H-pyrrolo[2,3-d]pyrimidin-7-yl)-2-hydroxycyclopentyl) methyl sulfamate]
[4]
  survival: significantly prolonged survival
  tumor volumes post-treatment: significantly smaller
[5]; HEK293, functional titre assay
  optimal concentration for AAV2-Fluc enhancement: 200 to 400 nM
[5]; HEK293, treated 60 min post transfection, 72 h, over a range of concentrations
  enhancement of AAV2-Fluc viral signal: up to 2.6 fold
[6]
  production of MG-1: facilitate production
[7]
  VSVΔ51-GFP viral titer: increases
  VSVΔ51 viral titer: significantly increased
[8]
  phosphorylation levels of STAT1 and STAT2 in response to IFN-β treatment: unable to markedly influence
  protein availability of ISGF3 components including STAT1: global reduction in protein availability
  transcription of STAT1 and downstream ISGs (IRF7, MX2, IFTM1): significantly decrease
  transcription of STAT1 in the presence of exogenous IFN: inhibiting the transcription of STAT1
[9]
  downstream RNA levels of IFN-1 effectors: decreased
  total protein levels of STAT1 and STAT2: decreased
[10]
  STAT1 transcription factor activity predicted by TFactS: inhibited
  downregulation of promyelocytic leukemia protein (PML) gene: approximately 79 fold
  expression of genes related to the IFN-1 GO term: significantly downregulated
  genes significantly downregulated: 3,326 genes
  genes significantly upregulated (P<0.05, log 2-fold change >2): 3,038 genes
[11]
  viability at 1 µM: 33%
[12]
  viral titer of VSVΔ51: able to increase the viral titer
[1]
  cell killing and apoptosis activation: increased cell killing and apoptosis activation
  lowest concentration with significant viability differences with vs without VSVΔ51: ≥ 120 nM
[13]
  viral replication: does not increase viral replication
[14]
  VSVΔ51 infection: able to increase VSVΔ51 infection
  increase in viral titer: over 15 fold
[15]
  caspase-8 activity: remained significantly increased
  cleaved caspase-3 levels: markedly higher levels
  full-length poly (ADP-ribose) polymerase (PARP) levels: decreased levels
  proportion of Annexin V-positive cells: significantly greater proportion
  time of peak caspase-8 activity: 36 hpi
[16]
  overall survival after CT26WT re-challenge: improved overall survival
  tumor volume progression after CT26WT re-challenge: suppress tumor volume progression more effectively
  tumor volumes post-treatment: significantly smaller
[2]
  VSVΔ51 growth (relative titer), multi-step growth curve: robustly enhance
  VSVΔ51 infectivity (fluorescent signal, plaque assay): increased VSVΔ51 infectivity
  average plaque diameter (plaque expansion assay): significantly increased
  time of administration capable of increasing VSVΔ51 viral titer: 24 hours prior until 4 hours after infection
  viral GFP transgene expression: marked increase
[17]
  NF-κB protein expression in nuclear fractions: markedly less NF-κB protein expression
  transcription of pro-inflammatory cytokines controlled by NF-κB signaling including IFN-β: repressed transcription
[18]
  viability, compound + VSVΔ51 vs compound only: no significant viability differences
[19]
  production of wild-type VSV: facilitate production
[20]
  increase in VSVΔ51 viral titer: over 30 fold
[21]
  cytotoxicity in combination with VSVΔ51: increased cytotoxicity

## COC(=O)C[C@H](NC(=O)[C@H](C)NC(=O)[C@@H](NC(=O)OCc1ccccc1)C(C)C)C(=O)CF [Z-VAD-FMK] (Cbz-Val-Ala-Asp(OMe)-CH2F)
[1]
  cell viability: 71%
